Consider 36 molecules from patent publication US11661431B2, “Thienopyrrole compounds” (Gilead Sciences, Inc., priority 2021, dated 2023).

Molecules are shown by their SMILES.

Test [1] has as its target TLR8 (Homo sapiens (Human), UniProt Q9NR97). The test can be described thus: TLR8 human peripheral blood mononuclear cell (PBMC) cell-based assay (Compound A as agonist; TNFα and IL12p40 readout). Conditions: human PBMCs, TLR8 agonist Compound A at 800 nM, 6 hours, antagonist potency; read-out: TLR-8 EC50. The procedure: After counting, the cell density was adjusted to 2 million cells/ml and incubated for 1 hour at 37° C., 5% CO2 for recovery. Following the recovery, the cells were plated by adding 50 μl per well (100,000 cells) to 384-well cell culture plates (Greiner) containing 250 nl of test antagonists in 100% DMSO per well, in a 10 points dose response in quadruplicates. PBMCs were incubated in the presence of antagonists for one hour at 37° C., 5% CO2 before being stimulated with TLR8 agonist. […] PBMCs were incubated in the presence of antagonist and the TLR8 agonist for an additional 6 hours at 37° C., 5% CO2. At the end of the incubation, the cell culture plates were centrifuged at 500 g for 5 min, and the cell culture supernatant was collected. The level of cytokines (TNFα and IL12p40) in the supernatant was measured by electrochemiluminescence immunoassays (Mesoscale Discovery) following manufacturer's recommended protocols.

In test [2] the target is TLR7 (Homo sapiens (Human), UniProt Q9NYK1). Briefly: TLR7 human peripheral blood mononuclear cell (PBMC) cell-based assay (GS-986 as agonist; IL-6 and IFNα readout). Conditions: human PBMCs, TLR7 agonist GS-986 at 400 nM, 6 hours, antagonist potency; read-out: TLR-7 EC50. The procedure: Human peripheral blood mononuclear cells (PBMCs) consist of lymphocytes, monocytes and dendritic cells that express TLR7, TLR8 and TLR9. These cells respond to TLR7, TLR8 and TLR9 ligand stimulation and produce cytokines and chemokines in vitro and in vivo. Human PBMCs are therefore suitable to be used in a cell-based assay to assess the in vitro potency of a TLR 7, 8, and/or 9 antagonist.
Sequence of TLR7 (Q9NYK1 27-1049): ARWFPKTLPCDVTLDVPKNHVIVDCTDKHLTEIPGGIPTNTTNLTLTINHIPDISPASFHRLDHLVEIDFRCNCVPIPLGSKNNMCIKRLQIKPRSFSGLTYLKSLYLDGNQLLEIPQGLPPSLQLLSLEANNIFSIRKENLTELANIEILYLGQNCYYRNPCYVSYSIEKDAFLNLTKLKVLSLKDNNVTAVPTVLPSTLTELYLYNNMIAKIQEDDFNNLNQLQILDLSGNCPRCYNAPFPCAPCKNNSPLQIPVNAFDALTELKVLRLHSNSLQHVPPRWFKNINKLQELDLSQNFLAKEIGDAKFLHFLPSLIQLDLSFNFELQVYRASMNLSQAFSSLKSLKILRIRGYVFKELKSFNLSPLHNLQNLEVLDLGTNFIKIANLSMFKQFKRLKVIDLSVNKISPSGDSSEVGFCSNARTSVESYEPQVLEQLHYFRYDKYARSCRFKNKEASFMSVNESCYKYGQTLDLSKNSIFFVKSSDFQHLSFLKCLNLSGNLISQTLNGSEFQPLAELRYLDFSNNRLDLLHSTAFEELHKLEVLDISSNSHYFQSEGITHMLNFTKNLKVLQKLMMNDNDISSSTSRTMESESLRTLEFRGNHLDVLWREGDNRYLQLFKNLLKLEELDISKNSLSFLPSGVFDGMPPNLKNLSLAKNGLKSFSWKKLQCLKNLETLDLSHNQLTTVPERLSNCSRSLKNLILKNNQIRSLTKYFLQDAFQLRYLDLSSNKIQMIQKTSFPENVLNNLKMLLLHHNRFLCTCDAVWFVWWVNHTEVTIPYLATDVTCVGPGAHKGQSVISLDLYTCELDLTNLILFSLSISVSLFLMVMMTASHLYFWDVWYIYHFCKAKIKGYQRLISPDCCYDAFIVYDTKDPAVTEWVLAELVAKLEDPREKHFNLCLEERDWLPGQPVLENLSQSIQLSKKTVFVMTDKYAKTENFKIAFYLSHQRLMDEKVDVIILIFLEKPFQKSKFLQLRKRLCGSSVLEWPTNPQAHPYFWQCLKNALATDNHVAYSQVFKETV
After counting, the cell density was adjusted to 2 million cells/ml and incubated for 1 hour at 37° C., 5% CO2 for recovery. Following the recovery, the cells were plated by adding 50 μl per well (100,000 cells) to 384-well cell culture plates (Greiner) containing 250 nl of test antagonists in 100% DMSO per well, in a 10 points dose response in quadruplicates. PBMCs were incubated in the presence of test antagonists for one hour at 37° C., 5% CO2 before being stimulated with a TLR7 or TLR9agonist. […] PBMCs were incubated in the presence of the test antagonist and the TLR7 (or TLR9) agonist for an additional 6 hours at 37° C., 5% CO2. At the end of the incubation, the cell culture plates were centrifuged at 500 g for 5 min, and the cell culture supernatant was collected. The level of cytokines (IL-6 and IFNα) in the supernatant was measured by electrochemiluminescence immunoassays (Mesoscale Discovery) following manufacturer's recommended protocols.

Sequence of TLR8 (Q9NR97 27-1041): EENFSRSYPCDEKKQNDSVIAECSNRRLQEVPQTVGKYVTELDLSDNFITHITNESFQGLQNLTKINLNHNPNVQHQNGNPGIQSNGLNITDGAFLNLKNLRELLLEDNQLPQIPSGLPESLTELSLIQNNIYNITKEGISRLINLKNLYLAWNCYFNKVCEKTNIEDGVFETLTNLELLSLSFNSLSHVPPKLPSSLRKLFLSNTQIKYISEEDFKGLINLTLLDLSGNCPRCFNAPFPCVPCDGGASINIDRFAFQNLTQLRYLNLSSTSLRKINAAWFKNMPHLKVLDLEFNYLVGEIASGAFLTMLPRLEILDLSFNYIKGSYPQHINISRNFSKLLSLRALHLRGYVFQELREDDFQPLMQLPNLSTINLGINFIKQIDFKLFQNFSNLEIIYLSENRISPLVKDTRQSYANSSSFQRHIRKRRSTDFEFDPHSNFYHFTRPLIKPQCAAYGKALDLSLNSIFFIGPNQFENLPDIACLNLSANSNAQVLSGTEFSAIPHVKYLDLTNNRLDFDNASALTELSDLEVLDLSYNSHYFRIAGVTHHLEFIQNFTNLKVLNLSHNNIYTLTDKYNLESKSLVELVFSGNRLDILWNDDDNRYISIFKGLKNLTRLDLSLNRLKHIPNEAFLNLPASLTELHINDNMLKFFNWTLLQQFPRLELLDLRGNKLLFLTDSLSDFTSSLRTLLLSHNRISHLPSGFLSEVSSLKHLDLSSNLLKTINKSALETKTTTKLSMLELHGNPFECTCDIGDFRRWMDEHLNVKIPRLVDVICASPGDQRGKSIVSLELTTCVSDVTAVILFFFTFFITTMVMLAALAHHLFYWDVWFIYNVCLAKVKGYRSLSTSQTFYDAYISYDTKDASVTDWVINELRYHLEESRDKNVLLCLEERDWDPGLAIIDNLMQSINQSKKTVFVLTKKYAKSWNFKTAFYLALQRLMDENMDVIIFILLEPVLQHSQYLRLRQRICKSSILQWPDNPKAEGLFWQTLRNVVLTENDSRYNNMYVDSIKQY

As usually defined, the EC50 is the concentration needed to bring the measured effect to its halfway point. On to `Cc1cc(-c2[nH]c3sc(C(=O)N(C)C4CCN(CCO)CC4)cc3c2C(C)C)cn2ncnc12` [Example 5], for which the values for the EC50 in test [1] and in test [2] were 5.96 nM and 0.5 nM, respectively.

In the case of `Cc1cc(-c2[nH]c3sc(S(=O)(=O)N4CCNCC4)cc3c2C(C)C)cn2ncnc12` [Example 6, 4-Isopropyl-5-(8-methyl-[1,2,4]triazolo[1,5-a]pyridin-6-yl)-2-(piperazin-1-ylsulfonyl)-6H-thieno[2,3-b]pyrrole], the EC50 in test [1] was 84.6 nM; in test [2], 21.5 nM.

In the case of `Cc1c(C(=O)N(C)C2CCN(CCO)CC2)sc2[nH]c(-c3cc(C)c4ncnn4c3)c(C(C)C)c12` [Example 7, N-(1-(2-hydroxyethyl)piperidin-4-yl)-4-isopropyl-N,3-dimethyl-5-(8-methyl-[1,2,4]triazolo[1,5-a]pyridin-6-yl)-6H-thieno[2,3-b]pyrrole-2-carboxamide], the EC50 in test [1] was 3.71 nM; in test [2], 0.14 nM.

As to `Cc1c(C2CCNCC2)sc2[nH]c(-c3cc(C)c4ncnn4c3)c(C(C)C)c12` [Example 8, 4-Isopropyl-3-methyl-5-(8-methyl-[1,2,4]triazolo[1,5-a]pyridin-6-yl)-2-(piperidin-4-yl)-6H-thieno[2,3-b]pyrrole], the concentration for a half-maximal effect (EC50) in test [1] stood at 4.92 nM; in test [2], 0.08 nM.

Regarding `Cc1c(C2CCN(CC(N)=O)CC2)sc2[nH]c(-c3cc(C)c4ncnn4c3)c(C(C)C)c12` [Example 9, 2-(4-(4-isopropyl-3-methyl-5-(8-methyl-[1,2,4]triazolo[1,5-a]pyridin-6-yl)-6H-thieno[2,3-b]pyrrol-2-yl)piperidin-1-yl)acetamide], the values for the EC50 in test [1] and in test [2] were 17.1 nM and 0.64 nM, respectively.

For `Cc1c(C2CCN(C(=O)CN(C)C)CC2)sc2[nH]c(-c3cc(C)c4ncnn4c3)c(C(C)C)c12` [Example 10, 2-(dimethylamino)-1-(4-(4-isopropyl-3-methyl-5-(8-methyl-[1,2,4]triazolo[1,5-a]pyridin-6-yl)-6H-thieno[2,3-b]pyrrol-2-yl)piperidin-1-yl)ethan-1-one], the EC50 in test [1] amounted to 9.29 nM; in test [2] it was 0.18 nM.

As for `Cc1c(C2CCN(CC3(C)COC3)CC2)sc2[nH]c(-c3cc(C)c4ncnn4c3)c(C(C)C)c12` [Example 11], the EC50 came to 14.3 nM in test [1] and 2.47 nM in test [2].

With `Cc1c(C2CCN(CCO)CC2)sc2[nH]c(-c3cc(C)c4ncnn4c3)c(C(C)C)c12` [Example 13, 2-(4-(4-isopropyl-3-methyl-5-(8-methyl-[1,2,4]triazolo[1,5-a]pyridin-6-yl)-6H-thieno[2,3-b]pyrrol-2-yl)piperidin-1-yl)ethan-1-ol], the results for the concentration giving a half-maximal response (EC50) in test [1] and in test [2] were 7.11 nM and 1.27 nM, respectively.

`Cc1c(C2CCN(C(=O)[C@@H]3CCCN3)CC2)sc2[nH]c(-c3cc(C)c4ncnn4c3)c(C(C)C)c12` [Example 14]: the EC50 in test [1] amounted to 13.8 nM; in test [2], 0.21 nM.

For the molecule `Cc1c(C2CCN(C(=O)[C@H]3CCCN3)CC2)sc2[nH]c(-c3cc(C)c4ncnn4c3)c(C(C)C)c12` [Example 15], the figures for the EC50 in test [1] and in test [2] were 13.4 nM and 0.12 nM, respectively.

With `Cc1c(C2CCN(C(=O)C3CNC3)CC2)sc2[nH]c(-c3cc(C)c4ncnn4c3)c(C(C)C)c12` [Example 16], the EC50 in test [1] is 46.1 nM; in test [2] it was 1.63 nM.

With `Cc1c(C2CCN(C(=O)[C@H]3CCCN3C)CC2)sc2[nH]c(-c3cc(C)c4ncnn4c3)c(C(C)C)c12` [Example 18], the values for the EC50 in test [1] and in test [2] were 10.9 nM and 0.05 nM, respectively.

With `Cc1c(C2CCN(C(=O)[C@@H]3CCCN3C)CC2)sc2[nH]c(-c3cc(C)c4ncnn4c3)c(C(C)C)c12` [Example 19], the EC50 is 7.76 nM in test [1] and 0.43 nM in test [2].

For the molecule `Cc1c(-c2ccc(N3CCNCC3)nc2)sc2[nH]c(-c3cc(C)c4ncnn4c3)c(C(C)C)c12` [Example 20, 4-isopropyl-3-methyl-5-(8-methyl-[1,2,4]triazolo[1,5-a]pyridin-6-yl)-2-(6-(piperazin-1-yl)pyridin-3-yl)-6H-thieno[2,3-b]pyrrole], the concentration for a half-maximal effect (EC50) in test [1] turned out to be 12 nM; in test [2], 0.28 nM.

Consider `Cc1c(-c2cnc3c(c2)CNCC3)sc2[nH]c(-c3cc(C)c4ncnn4c3)c(C(C)C)c12` [Example 21], for which the EC50 in test [1] came to 1.25 nM; in test [2], 1.08 nM.

`Cc1c(-c2ccc3[nH]c([C@H]4N[C@@H]5CC[C@H]4C5)nc3c2)sc2[nH]c(-c3cc(C)c4ncnn4c3)c(C(C)C)c12` [Example 22]: the EC50 worked out at 26.1 nM in test [1] and 1.27 nM in test [2].

For `Cc1c(-c2ccc(N3CCNCC3)cc2)sc2[nH]c(-c3cc(C)c4ncnn4c3)c(C(C)C)c12` [Example 23], the EC50 in test [1] stood at 16.1 nM; in test [2], 0.56 nM.

In the case of `Cc1c(C2CCC3(CC2)CNC3)sc2[nH]c(-c3cc(C)c4ncnn4c3)c(C(C)C)c12` [Example 24], the EC50 in test [1] is 8.98 nM; in test [2], 0.29 nM.

As for `Cc1c(C2CCC3(CC2)CN(CC(N)=O)C3)sc2[nH]c(-c3cc(C)c4ncnn4c3)c(C(C)C)c12` [Example 25], the EC50 was found to be 2.95 nM in test [1] and 0.11 nM in test [2].

In the case of `Cc1cc(-c2[nH]c3sc(C4CCN(CC(N)=O)CC4)cc3c2C(C)C)cn2ncnc12` [Example 26], the EC50 in test [1] was 1.61 nM; in test [2], 0.68 nM.

Turning to `Cc1c(C2CCN(C(C)C(N)=O)CC2)sc2[nH]c(-c3cc(C)c4ncnn4c3)c(C(C)C)c12` (stereo not drawn) [Example 27], the EC50 in test [1] was found to be 8.43 nM; in test [2] it was 0.25 nM.

Consider `CNC(=O)CN1CCC(c2sc3[nH]c(-c4cc(C)c5ncnn5c4)c(C(C)C)c3c2C)CC1` [Example 28], for which the results for the EC50 in test [1] and in test [2] were 19.7 nM and 1.06 nM, respectively.

Take `Cc1c(C2CC3(C2)CN(CC(N)=O)C3)sc2[nH]c(-c3cc(C)c4ncnn4c3)c(C(C)C)c12` [Example 29]: the figures for the concentration giving a half-maximal response (EC50) in test [1] and in test [2] were 0.21 nM and 0.94 nM, respectively.

On to `Cc1c(C2CC3COCC(C2)N3CC(N)=O)sc2[nH]c(-c3cc(C)c4ncnn4c3)c(C(C)C)c12` (stereo not drawn) [Example 30], for which the EC50 in test [1] was 257 nM; in test [2] it was 3.42 nM.

Turning to `Cc1c(-c2[nH]c3sc(C4CC5(C4)CN(CC(N)=O)C5)c(C)c3c2C(C)C)cn2ncnc2c1C` [Example 31], the results for the EC50 in test [1] and in test [2] were 0.05 nM and 3.15 nM, respectively.

For the molecule `Cc1c(C2CCN(C(=O)N3CCNCC3)CC2)sc2[nH]c(-c3cc(C)c4ncnn4c3)c(C(C)C)c12` [Example 32], the EC50 in test [1] was 8.32 nM; in test [2], 0.05 nM.

For `Cc1c(C2CC3COCC(C2)N3CCO)sc2[nH]c(-c3cc(C)c4ncnn4c3)c(C(C)C)c12` (stereo not drawn) [Example 33], the EC50 in test [1] is 45.9 nM; in test [2], 7.19 nM.

As to `Cc1c(C2CCN(C(=O)CN3CCCC3)CC2)sc2[nH]c(-c3cc(C)c4ncnn4c3)c(C(C)C)c12` [Example 34], the EC50 in test [1] was 4.45 nM; in test [2], 0.06 nM.

With `Cc1c(C2CCN(C(=O)[C@H]3COCCN3)CC2)sc2[nH]c(-c3cc(C)c4ncnn4c3)c(C(C)C)c12` [Example 35], the values for the concentration for a half-maximal effect (EC50) in test [1] and in test [2] were 13 nM and 0.1 nM, respectively.

With `Cc1c(C2CCN(C(=O)[C@@H]3COCCN3)CC2)sc2[nH]c(-c3cc(C)c4ncnn4c3)c(C(C)C)c12` [Example 36], the EC50 in test [1] amounted to 20.8 nM; in test [2] it was 0.54 nM.

As for `Cc1c(C2CCC3(CC2)CN(C(=O)[C@@H]2CCCN2)C3)sc2[nH]c(-c3cc(C)c4ncnn4c3)c(C(C)C)c12` [Example 37], the figures for the EC50 in test [1] and in test [2] were 9.95 nM and 0.2 nM, respectively.

For `Cc1c(C2CCC3(CC2)CN(C(=O)[C@H]2CCCN2)C3)sc2[nH]c(-c3cc(C)c4ncnn4c3)c(C(C)C)c12` [Example 38], the EC50 in test [1] was determined as 10.4 nM; in test [2], 0.22 nM.

As to `Cc1c(C2CCN(C(=O)[C@H]3CC(F)(F)CN3)CC2)sc2[nH]c(-c3cc(C)c4ncnn4c3)c(C(C)C)c12` [Example 39], the values for the EC50 in test [1] and in test [2] were 125 nM and 1.18 nM, respectively.

For `Cc1c(C2CCN(C(=O)C34CC(CN3)C4)CC2)sc2[nH]c(-c3cc(C)c4ncnn4c3)c(C(C)C)c12` [Example 40], the values for the EC50 in test [1] and in test [2] were 3.14 nM and 0.07 nM, respectively.

Turning to `Cc1c(C2CCN(C(=O)C34CC(F)(CN3)C4)CC2)sc2[nH]c(-c3cc(C)c4ncnn4c3)c(C(C)C)c12` [Example 41], the EC50 in test [1] worked out at 12.3 nM; in test [2] it was 0.35 nM.

As for `Cc1c(C2CCN(C(=O)[C@H]3C[C@@H](F)CN3)CC2)sc2[nH]c(-c3cc(C)c4ncnn4c3)c(C(C)C)c12` [Example 42], the results for the EC50 in test [1] and in test [2] were 25.7 nM and 0.78 nM, respectively.
